The assay has as its system Phytophthora infestans. It counts as in vivo. To be noted: tomato (Patio) seedling, foliage application.
The mark [1] stands for this setting: concentration of present compound 50 ppm.
Setting [2] is: concentration of present compound 200 ppm.

Where two headings read alike, the source gives them in different places.

With `COc1ccc(C(=O)NCC2CCCCC2)cc1F` [present compound 7, N-(cyclohexylmethyl)-3-fluoro-4-methoxybenzamide], the Control value entry under setting [1] was “++ (40% or more and less than 60% of the lesion spot area on an untreated plant.)”; the Control value entry under setting [2] is recorded as “++++ (Less than 20% of the lesion spot area on an untreated plant.)”.
Consider `COc1c(F)cc(C(=O)NCC2CCCCC2)cc1F` [present compound 9, N-(cyclohexylmethyl)-3,5-difluoro-4-methoxybenzamide], for which the Control value result was “++++ (Less than 20% of the lesion spot area on an untreated plant.)” under setting [1] and “++++ (Less than 20% of the lesion spot area on an untreated plant.)” under setting [2].

The record behind these values is patent US20100137445A1, “PLANT DISEASE CONTROL AGENT, AND PLANT DISEASE CONTROL METHOD” (SUMITOMO CHEMICAL COMPANY ,LIMITED, priority 2007, published 2010).
